Source: patent publication US8933099B2, “Monocyclic pyridine derivative” (Eisai R&D Management Co., Ltd., priority 2013, dated 2015)

System: cell line RT112/84 xenograft
Experiment: Antitumor effect in RT112/84 subcutaneous xenograft model in mice
Assay type: in vivo
Details: oral, once a day for 14 days, tumor volume last day
Description: Human […] cancer cell line RT112/84 (ECACC Number EC85061106-F0), which had been cultured in an RPMI-1640 medium containing 10% […], and penicillin and streptomycin, were adjusted to a concentration of 1×10^8 cells/mL with Hanks' Balanced Salt Solution (GIBCO 1424020) to prepare a cell suspension, and the suspension was mixed with […] (BD Biosciences, Cat/354234) in a ratio of 1:1 to prepare a cell suspension in a concentration of 5×10^7 cells/ml. The cell suspension was inoculated in a volume of 100 μL into a subcutaneous part of a right flank of nude mice, 7 weeks of age (BALB/cAJcl-nu/nu, female, Clea Japan Inc.). Ten days after cell inoculation, the shortest diameter and the longest diameter of a tumor in each mouse were measured by using an electronic digital caliper (Digimatic™ caliper, Mitutoyo Corporation), so as to calculate the volume of the tumor in accordance with the following calculation formula: Tumor volume(mm^3)=Longest diameter(mm)×Shortest diameter(mm)×Shortest diameter(mm)/2 […]
With respect to each of the control group and test substance administration group, a ratio of the weight measured on the final day to the weight measured on the first day (relative body weight: RBW) was calculated. […]

## CNC(=O)n1ccc2cc(Oc3ccnc(NC(=O)c4ccc(C5CCN(CCO)CC5)cc4)c3)c(OCCOC)cc21 [Example 22, 5-((2-(4-(1-(2-Hydroxyethyl)piperidin-4-yl)benzamide)pyridin-4-yl)oxy)-6-(2-methoxyethoxy)-N-methyl-1H-indole-1-carboxamide]
25 mg/kg
  T/C (%): 62%
50 mg/kg
  T/C (%): 33%
